Test results: patent US20200370088A1, “KIT AND METHOD FOR ANTIBIOTICS SUSCEPTIBILITY TESTING WITH THE AGAR DILUTION METHOD” ([…].R.L., priority 2019, published 2020)
Values after ≈ are worked out from the molar mass of the structure shown.

Test system: test bacteria
Experiment: Agar dilution MIC test in 12-well agarized panel (FIG. 2A-E)
Format: cell-based
Settings: for MIC: agar dilution test
Experimental: In alternative embodiments, the MIC in agar is determined by the steps of inoculating a suspension of the bacterium to be tested in a plurality of agarized wells with serial two-fold dilutions of antibiotic. The test bacteria are inoculated on the agarized wells. These inoculated wells are incubated at 35-37° C. overnight. The MIC is defined as the minimum antibiotic concentration that yielded complete inhibition of the bacteria on the wells. The steps are illustrated in FIG. 1 and FIGS. 2a-2e.
In alternative embodiments of methods as provided herein different bacterial strains such as Staphylococcus spp., Enterococcus spp., Enterobactariaceae and corresponding mixtures can be inoculated onto the surface of the agarized wells prepared according to Ref. (1) and containing various concentrations of antibiotic. The inoculated wells are incubated at about 35-37° C. for a fixed time, or in alternative embodiment for about 15-24 hours. Depending on the concentration of the antibiotic, bacterial growth results and is clearly visible on the wells. Generally, in the wells having the high concentration of antibiotic, the antibiotic inhibits the bacterial growth while on the wells having low antibiotic concentrations distinctly visible and typical growth is observed. The lowest antibiotic concentration which serves to inhibit the growth of the bacteria on the wells is defined as the minimal inhibitory concentration (MIC).
With particular reference to the FIGS. 2a-2e, the therein illustrated kit is a 12-well panel containing the antibiotic incorporated into an agar medium in different concentrations, i.e. 11 two-fold dilutions (0.25-256 μg/ml). The procedure used to carry out the test is the agar dilution (AD)method for the antimicrobial susceptibility testing of the antibiotic and is according to the one recommended by CLSI and EUCAST (Ref. 1-4) standards but in a simpler and less time-consuming way and with highly reproducible results.
All wells are inoculated with a standardized microbial suspension.
After incubation in thermostat (as described in the following paragraph, for example at 36±2° C. for 16-20 hours in ambient air) the result is read and interpreted.
Test Procedure • Take a panel from its envelope and leave it at room temperature for 10 min. • Prepare a suspension of the test organism using either the direct colony suspension or growth method. • Standardize the suspension to the density of a McFarland 0.5 standard. • Optimally within 15 min of preparation, dilute the adjusted suspension 1:10 in saline. • Dispense 2 μl of the inoculum solution over the agar surface (*) into each well (the final inoculums concentration should be approximately 10^4 CFU per spot). […]
At the end of the incubation period observe the growth in the wells and establish the MIC, i.e. the lowest concentration of antibiotic that inhibits visible growth.
Disregard single colonies or faint haze caused by the inoculum

C[C@@H]1O[C@@H]1P(=O)(O)O [fosfomycin]
MIC (48 h, FIG. 2d): 64 µg/mL (≈ 464 µM) | growth observed in well (FIG. 2E, at 1 μg/ml): faint haze | MIC (FIG. 2a): 0.5 µg/mL (≈ 3.62 µM) | MIC (FIG. 2b): 16 µg/mL (≈ 116 µM) | MIC (FIG. 2c): 2 µg/mL (≈ 14.5 µM)
